≈ marks a conversion by molar mass, not a printed value. Where only a bound is given, the exact number is not on record here.

The term MIC denotes the least concentration at which growth counts as inhibited. Read a low MIC as inhibition by little substance. By microsomal CLint is commonly meant the rate of metabolic loss divided by the concentration. High values mean faster metabolism, low ones greater metabolic stability. The AUC(0-t) is exposure summed from dosing to a finite time, without extrapolation to infinity. Low values mean less exposure, high ones more exposure. As usually defined, the clearance is the rate of elimination divided by the concentration.

Series [1] has as its system Staphylococcus aureus Newman WT. The series is described as follows: MIC, broth microdilution, S. aureus Newman wild type. The class given is cell-based. To be noted: Staphylococcus aureus, NEWMAN. Here is the method:
(§1) Cefazolin was obtained from Acros Organics. Ciprofloxacin hydrochloride, linezolid and vancomycin hydrochloride were obtained from Sigma-Aldrich (St. Louis, MO, USA). Tetracycline hydrochloride was obtained from Alfa Aesar. Sorangicin A was provided by HZI, Braunschweig. Stock solutions were prepared in Milli-Q water or dimethyl sulfoxide (DMSO, Sigma-Aldrich). Minimum inhibitory concentrations (MICs) were determined in cation-adjusted Mueller-Hinton broth (MHB2) using the broth microdilution method as recommended by the Clinical and Laboratory Standards Institute (CLSI). The MIC was defined as the lowest concentration of the antibiotic causing complete inhibition of visible growth of the microorganism (CLSI, 2017).
(§2) 1. In vitro characterization of mCherry expressing Staphylococcus aureus Newman
(§3) 1.1 Minimum inhibitory concentration
(§4) Table S1. Antibiotic susceptibility profile of Staphylococcus aureus Newman. WT: wild type. […]
(In general: Broth dilution looks for growth in wells or tubes with falling amounts of substance.)

In series [2] the test system is Staphylococcus aureus Newman mCherry. The series is described as follows: MIC, broth microdilution, mCherry-expressing S. aureus Newman. The class given is cell-based. To be noted: Staphylococcus aureus, NEWMAN. The procedure:
as §1, §2, §3, §4

The subject of the next series is zebrafish embryos. The series is described as follows: Toxicity of antimicrobials on zebrafish embryos. The class given is in vivo, Danio rerio. Here is the method: Toxicity of antibiotics was assessed by aquatic exposure and microinjection. For evaluation of the maximum tolerated concentration (MTC) by aquatic exposure, embryos were dechorionated at 30 hpf and placed in a flat-bottom 96-well plate (Sarstedt) with one embryo per well. Excess medium was removed and 150 µL of compound dilutions (in 0.3× Danieau’s, maximum of 1% DMSO) were added. For each antibiotic, a range of concentrations was investigated. Ten embryos were used per concentration and ten additional embryos incubated in fish medium without any antibiotic served as negative control. Microinjection of antibiotics into the caudal vein (CV) and the yolk sac was performed as described earlier. PBS-injected embryos served as negative control. Exposed embryos were maintained at 28 °C throughout the whole experiment. Embryos were monitored daily under a stereo microscope (Stemi 508, Zeiss) in order to record survival as well as anomalies, pigmentation, heartbeat and locomotor responses. An embryo was considered dead when no heart beat could be observed.

Series [3] is described as follows: Phase I metabolic stability, mouse liver microsomes. The note with it: pooled liver microsomes, pH 7.4. It is filed as in vitro ADME. The procedure:
(§5) For the evaluation of phase I metabolic stability, the compound (1 µM) was incubated with 0.5 mg/mL pooled mouse/rat liver microsomes (Xenotech, Kansas City, MO, USA) or human liver microsomes (Corning, NY, USA), 2 mM NADPH and 10 mM MgCl2 at pH 7.4 for 120 min at 37 °C. The metabolic stability of testosterone, verapamil and ketoconazole were determined in parallel to confirm the enzymatic activity of mouse/rat liver microsomes; for human liver microsomes testosterone, diclofenac and propranolol were used. The incubation was stopped after defined time points by precipitation of aliquots of the assay mixture with two volumes of ice-cold acetonitrile containing internal standard (15 nM diphenhydramine). Samples were stored on ice until the end of the incubation and precipitated protein was removed by centrifugation (15 min, 4 °C, 4000× g).
For orientation: Liver microsomes are vesicles of endoplasmic reticulum, rich in cytochrome P450 enzymes.

Series [4] can be described thus: Phase I metabolic stability, rat liver microsomes. The class given is in vitro ADME. The note with it: pooled liver microsomes, pH 7.4. Here is the method: as §5
The format of series [5] is in vitro ADME. The note with it: mouse plasma. The procedure:
(§6) To determine stability in plasma, a similar setup as for the determination of metabolic stability was applied using pooled mouse, human or rat plasma (Neo Biotech, Nanterre, France). Samples were taken by mixing aliquots with four volumes of ice cold acetonitrile containing internal standard (12.5 nM diphenhydramine). The plasma stability of procain, propantheline and diltiazem were determined in parallel to confirm the enzymatic activity.

The nature of another series: in vitro. It is filed as in vitro ADME. To be noted: read-out: Plasma Stability t1/2. Here is the method: as §6
A short description of series [6]: Plasma protein binding (RED), mouse plasma. The class given is in vitro ADME. The note with it: CD-1, mouse, pooled plasma, pH 7.4, mouse plasma. The procedure: (§7) Plasma protein binding was determined using the Rapid Equilibrium Dialysis (RED) system (Thermo Fisher Scientific, Waltham, MA, USA). The compound was diluted in pooled murine (CD-1)/human or Wistar rat plasma (Neo Biotech, Nanterre, France) to 10 µM and added to the respective chamber according to the manufacturer’s protocol, followed by addition of PBS pH 7.4 to the opposite chamber. Samples were taken immediately after addition to the plate as well as after 2, 4 and 5 h by mixing 10 µL with 80 µL ice-cold acetonitrile containing 12.5 nM diphenhydramine as internal standard, followed by addition of 10 µL plasma to samples taken from PBS and vice versa. Samples were stored on ice until the end of the incubation and precipitated protein was removed by centrifugation (15 min, 4 °C, 4000× g, 2 centrifugation steps). Concentration of the remaining test compound at the different time points was analyzed by HPLC-MS/MS (TSQ Altis Plus, Thermo Fisher, Dreieich, Germany). The amount of compound bound to protein was calculated using the equation PPB [%] = 100 − 100 × (amount in buffer chamber/amount in plasma chamber).

Series [7] in a line: Plasma protein binding (RED), rat plasma. It is filed as in vitro ADME. The note with it: Wistar, pooled plasma, pH 7.4, rat plasma. The procedure:
as §7

Series [8] in a line: In vivo pharmacokinetics in male CD-1 mice, i.v. The arrangement: species or system mouse. The note with it: 5 mg/kg i.v. Here is the method: Pharmacokinetic evaluation of sorangicin A in mice was carried out by Pharmacelsus GmbH (Saarbrücken, Germany). All mouse experiments were approved by and conducted in accordance with the regulations of the local Animal Welfare authorities. Nine adult male CD-1 mice (purchased from Janvier Labs, Le Genest-Saint-Isle, France) were used. Animals were housed in a separate temperature-controlled room (20–24 °C) and maintained in a 12 h light/12 h dark cycle. […] Retrobulbar blood samples were collected from three animals at 0.083, 0.25, 0.5, 1, 3 and 7 h after i.v. administration (two time points/ animal). At each of the designated time points 100 µL blood was collected from the eye into lithium heparin tubes. Quantification of sorangicin A in the generated plasma was performed by LC-MS/MS analysis. The pharmacokinetic analysis was performed by applying a non-compartment model using the Kinetica 5.0 software (Thermo Scientific, Waltham, MA, USA). All given parameters were obtained by trapezoid area calculation.

The subject of a further series is CYP3A4. To be noted: cited from earlier work.
The test system of the next series is S. aureus. Set-up: method as in unpublished data from GBF. To be noted: former in vivo efficacy studies; ref unpublished data from GBF; cited from earlier work.
Details of series [9]: method as in unpublished data from GBF. The note with it: ref unpublished data from GBF; cited from earlier work.
Setting [10] is: 10 µM, read-out: PPB (converted).

In the case of `C/C(=C\[C@H](C)CCCCC(=O)O)[C@@H]1O[C@@H]2C=C[C@H]1OC(=O)\C=C/C=C\C=C\[C@H]1O[C@@H]3C[C@H]1O[C@@H](/C=C/C[C@H]1O[C@H](C[C@H](O)[C@H]1C)[C@@H](O)[C@@H](O)/C=C/CC/C=C/C2)[C@@H]3C` [sorangicin A], the MIC in series [1] and in series [2] was 0.0625 µg/mL (≈ 0.0774 µM) throughout. Moreover, in the series with zebrafish embryos (long-term aquatic exposure, 200 µg/mL), the “reduction in embryo survival with respect to control (1% DMSO)” value came to 10%. Also, the “tolerability of injection dose” value in the series on zebrafish embryos (microinjection 30 mg/kg) is recorded as “well-tolerated”. In addition, the well-tolerated concentration result with zebrafish embryos (short- and long-term aquatic exposure) is “up to 100 µg/mL”. Moreover, the values for the microsomal CLint at 1 µM in [3] and in series [4] were 557 ± 297 µL/min/mg and 239 ± 155 µL/min/mg, respectively. For the same compound, the “plasma concentration after 4 h incubation” value in [5] was “below the limit of detection”. Moreover, the half-life in “in vitro” (human plasma) was > 240 min; in series [8] (mouse, plasma, iv, read-out: t1/2 (terminal phase) (converted)), 52.2 min. For the same compound, in the series “in vitro” (rat plasma), the half-life at 1 µM is > 240 min. For the same compound, the fraction unbound at 10 µM is 0.121 in [6] (setting [10]), > 0.1 in series [6] (read-out: free fraction), 0.112 in series [7] (setting [10]) and > 0.1 in series [7] (read-out: free fraction). Further, the “cZ (last measured blood concentration)” value in [8] is listed as 7.2 ng/mL. In series [8], the “time plasma levels maintained above the MIC of S. aureus” value is “less than 30 min”. In series [8] (mouse, plasma, iv), the AUC(0-t) came to 341 ng·h/mL. Besides, the clearance in series [8] (mouse, plasma, iv, read-out: CL (total clearance) (converted)) is 238 mL/min/kg. Besides, in series [8] (mouse, plasma, iv, read-out: Vz), the Vd came to 18 L/kg. Moreover, in series [8] (mouse, plasma, iv, read-out: c0 (maximum blood concentration, extrapolated time point zero)), the C0 is 1830 ng/mL. In the series with CYP3A4, the CYP3A4 induction result is “only moderate CYP3A4 induction”. Besides, the “protective effect in mouse models of S. aureus infection” value in the series with S. aureus was “failed to show a protective effect”. The “outcome in experimental infection models in rats” value in series [9] was “successful”.

(Values after article PMC10454396 (International Journal of Molecular Sciences, 2023).)
